{
  "source": "patent US20190070139A1",
  "about": "“AGENT FOR IMPROVING PHYSICAL FITNESS” (AJINOMOTO CO., INC, priority 2016, published 2019)",
  "key": {"male CD2F1 mice": {"test_system": "male CD2F1 mice", "test": "Treadmill running until exhaustion (endurance capacity)", "type": "in vivo, mouse", "method": "6-Week-old male CD2F1 mice (CHARLES RIVER LABORATORIES JAPAN, INC.) were divided into 3 groups of a group with ingestion of a normal diet (AIN-93G composition) and without exercise (non-exercise group), a group with ingestion of a normal diet and with exercise (exercise group), and a group with ingestion of a diet containing 2 wt % cystine (free form), which was prepared by replacing casein in the normal diet with cystine, and with exercise (exercise+2% cystine group). Each group ingested a test diet (normal diet or normal diet containing 2 wt % cystine) for 8 days. Thereafter, the exercise group and the exercise+2% cystine group were made to run on a treadmill until exhaustion for 3 consecutive days, and the running time until then was measured (FIG. 1). […] On the next day after completion of the 3-day running, the muscle of the mice in each group was collected, and the amount of glycogen in the muscle was measured. […] Thereafter, the mice were forced to run until exhaustion under the exercise conditions similar to those in Experimental Example 1, and the running time then was measured. […] The next day, the mice were made to run until exhaustion under the exercise conditions similar to those in Experimental Example 1, and the running time then was measured. The amount of increase in the running time was calculated as an endurance-improving effect. […]"}, "[1]": {"test_system": "glycogen in gastrocnemius muscle", "test": "Amount of glycogen in gastrocnemius muscle", "type": "in vivo, mouse", "settings": "Experimental Example 1; next day after 3-day continuous exercise; Ex+Cyt (2 wt % cystine diet) vs Ex", "method": "6-Week-old male CD2F1 mice (CHARLES RIVER LABORATORIES JAPAN, INC.) were divided into 3 groups of a group with ingestion of a normal diet (AIN-93G composition) and without exercise (non-exercise group), a group with ingestion of a normal diet and with exercise (exercise group), and a group with ingestion of a diet containing 2 wt % cystine (free form), which was prepared by replacing casein in the normal diet with cystine, and with exercise (exercise+2% cystine group). Each group ingested a test diet (normal diet or normal diet containing 2 wt % cystine) for 8 days. Thereafter, the exercise group and the exercise+2% cystine group were made to run on a treadmill until exhaustion for 3 consecutive days, and the running time until then was measured (FIG. 1). The non-exercise group was fasted and deprived of water during running of the other two groups. On the next day after completion of the 3-day running, the muscle of the mice in each group was collected, and the amount of glycogen in the muscle was measured. The amount of glycogen in muscle was measured as follows. […] Glucose in this solution was detected and quantified using “glucose CII-Test Wako” (manufactured by Wako Pure Chemical Industries, Ltd.). […] The groups with exercise were forced to run in a treadmill until exhaustion for 2 consecutive days and the running time then was measured. […]"}},
  "data": [
    {"smiles": "NC(CSSCC(N)C(=O)O)C(=O)O", "note": "(stereo not drawn) [cystine, 3,3′-dithiobis(2-aminopropanoic acid)]", "values": [
      {"measurement": "amount of increase in the running time by exercise", "setting": "male CD2F1 mice; Experimental Example 1, diet containing 2 wt % cystine for 8 days, then running until exhaustion for 3 consecutive days, Ex+Cyt vs Ex (normal diet)", "value": "significantly (P<0.05 or P<0.01) higher"},
      {"measurement": "amount of increase in the running time", "setting": "male CD2F1 mice; Experimental Example 2, 2 wt % cystine diet given for one day after exercise on day 1, day 2 minus day 1, Ex+Cyt vs Ex", "value": "tended to be higher"},
      {"measurement": "amount of glycogen in gastrocnemius muscle", "setting": "[1]", "value": "further significantly (P<0.05) increased"}
    ]}
  ]
}
